Assay results: article PMC12136037, “Type II kinase inhibitors that target Parkinson’s disease–associated LRRK2” (Science Advances, 2025)

Legend:
Assay in all cases: DSF 100 kinase selectivity screen;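 for dTm: compound tested at 20 µM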
Assay type in all cases: binding
[1] = target: T1, ~100 representative kinases (Homo sapiens, UniProt Q86V86); settings: protein PIM3; average of three replicates
T1 construct: Recombinant protein kinase domains with a concentration of 2 μM
How it was run: (§1)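 Each kinase domain, at 2 μM, is mixed with 20 μM test compound and SYPRO Orange in Hepes (20 mM, pH 7.5) with 500 mM NaCl. Temperature is then raised at 3°C/min and fluorescence-monitored unfolding yields the melting temperature change, ΔTm in degrees Celsius.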

[2] = target: T2, ~100 representative kinases (Homo sapiens, UniProt P15735); settings: protein PHKG2; average of three replicates
T2 construct: Recombinant protein kinase domains with a concentration of 2 μM
T2 sequence (P15735 1-406): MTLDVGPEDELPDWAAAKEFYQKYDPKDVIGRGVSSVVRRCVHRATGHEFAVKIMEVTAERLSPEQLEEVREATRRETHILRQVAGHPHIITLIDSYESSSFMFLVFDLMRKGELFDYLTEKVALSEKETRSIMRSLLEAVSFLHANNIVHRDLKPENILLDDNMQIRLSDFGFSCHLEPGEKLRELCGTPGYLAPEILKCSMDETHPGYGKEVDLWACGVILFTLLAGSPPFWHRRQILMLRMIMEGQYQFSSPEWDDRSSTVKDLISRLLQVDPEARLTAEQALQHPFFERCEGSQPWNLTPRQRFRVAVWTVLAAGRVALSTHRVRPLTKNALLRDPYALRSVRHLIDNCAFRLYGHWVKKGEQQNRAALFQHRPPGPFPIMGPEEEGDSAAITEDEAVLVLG
How it was run: as §1

[3] = target: T3, ~100 representative kinases (Homo sapiens, UniProt P52564); settings: protein MAP2K6; average of three replicates
T3 construct: Recombinant protein kinase domains with a concentration of 2 μM
T3 sequence (P52564 1-334): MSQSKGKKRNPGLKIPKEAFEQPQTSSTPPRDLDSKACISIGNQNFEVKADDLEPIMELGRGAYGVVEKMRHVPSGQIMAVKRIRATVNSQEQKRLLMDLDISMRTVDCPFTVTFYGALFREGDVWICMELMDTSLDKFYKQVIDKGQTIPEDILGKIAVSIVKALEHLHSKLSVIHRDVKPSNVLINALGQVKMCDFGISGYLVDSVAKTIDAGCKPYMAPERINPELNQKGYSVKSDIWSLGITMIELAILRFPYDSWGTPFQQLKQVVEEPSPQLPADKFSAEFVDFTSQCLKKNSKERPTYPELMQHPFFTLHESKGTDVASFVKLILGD
How it was run: as §1

[4] = target: T4, ~100 representative kinases (Homo sapiens, UniProt P11309); settings: protein PIM1; average of three replicates
T4 construct: Recombinant protein kinase domains with a concentration of 2 μM
T4 sequence (P11309 whole entry, the tested form may be a part): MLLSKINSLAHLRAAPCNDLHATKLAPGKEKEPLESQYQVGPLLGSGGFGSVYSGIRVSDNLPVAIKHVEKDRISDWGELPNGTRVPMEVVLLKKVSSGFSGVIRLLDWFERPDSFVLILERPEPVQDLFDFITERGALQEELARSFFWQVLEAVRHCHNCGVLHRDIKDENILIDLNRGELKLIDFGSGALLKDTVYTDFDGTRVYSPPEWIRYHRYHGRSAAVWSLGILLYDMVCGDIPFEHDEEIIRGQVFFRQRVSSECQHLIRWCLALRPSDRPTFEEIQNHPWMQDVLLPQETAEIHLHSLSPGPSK
How it was run: as §1

[5] = target: T5, ~100 representative kinases (Homo sapiens, UniProt Q16566); settings: Protein CAMK4; average of three replicates
T5 construct: Recombinant protein kinase domains with a concentration of 2 μM
T5 sequence (Q16566 1-473): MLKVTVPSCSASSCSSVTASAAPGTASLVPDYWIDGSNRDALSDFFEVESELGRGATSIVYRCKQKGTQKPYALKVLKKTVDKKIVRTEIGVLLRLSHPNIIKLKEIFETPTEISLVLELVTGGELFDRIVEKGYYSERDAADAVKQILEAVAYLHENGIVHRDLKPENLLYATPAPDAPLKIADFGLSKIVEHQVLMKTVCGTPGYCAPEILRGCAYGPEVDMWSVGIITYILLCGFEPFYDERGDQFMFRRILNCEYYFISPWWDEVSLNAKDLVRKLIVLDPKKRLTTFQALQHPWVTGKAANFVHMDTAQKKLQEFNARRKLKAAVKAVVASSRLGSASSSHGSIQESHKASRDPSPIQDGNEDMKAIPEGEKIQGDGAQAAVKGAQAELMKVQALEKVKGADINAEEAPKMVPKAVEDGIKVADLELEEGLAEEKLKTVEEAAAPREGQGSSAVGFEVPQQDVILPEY
How it was run: as §1

[6] = target: T6, ~100 representative kinases (Homo sapiens, UniProt Q96SB4); settings: Protein SRPK1; DSF; average of three replicates
T6 construct: Recombinant protein kinase domains with a concentration of 2 μM
T6 sequence (Q96SB4 whole entry, the tested form may be a part): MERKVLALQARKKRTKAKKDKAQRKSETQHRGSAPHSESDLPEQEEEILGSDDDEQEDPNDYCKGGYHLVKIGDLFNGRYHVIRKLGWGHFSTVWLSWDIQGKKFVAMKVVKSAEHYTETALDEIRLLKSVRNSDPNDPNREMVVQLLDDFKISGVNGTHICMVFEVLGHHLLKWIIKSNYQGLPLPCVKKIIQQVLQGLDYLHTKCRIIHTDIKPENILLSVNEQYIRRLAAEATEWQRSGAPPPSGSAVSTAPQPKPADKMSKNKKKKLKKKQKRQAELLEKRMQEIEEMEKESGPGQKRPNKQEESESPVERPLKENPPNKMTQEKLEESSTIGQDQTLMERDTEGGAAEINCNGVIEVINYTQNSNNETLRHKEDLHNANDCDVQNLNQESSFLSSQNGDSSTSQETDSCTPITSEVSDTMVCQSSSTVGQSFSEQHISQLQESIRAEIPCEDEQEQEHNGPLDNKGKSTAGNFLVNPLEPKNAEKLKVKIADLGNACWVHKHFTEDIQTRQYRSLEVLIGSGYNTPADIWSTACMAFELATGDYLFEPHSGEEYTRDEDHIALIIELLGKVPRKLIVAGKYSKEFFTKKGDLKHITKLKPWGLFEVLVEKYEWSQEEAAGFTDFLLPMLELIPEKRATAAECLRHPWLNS
How it was run: as §1

[7] = target: T7, ~100 representative kinases (Homo sapiens, UniProt P53355); settings: Protein DAPK1; average of three replicates
T7 construct: Recombinant protein kinase domains with a concentration of 2 μM
T7 sequence (P53355 whole entry, the tested form may be a part): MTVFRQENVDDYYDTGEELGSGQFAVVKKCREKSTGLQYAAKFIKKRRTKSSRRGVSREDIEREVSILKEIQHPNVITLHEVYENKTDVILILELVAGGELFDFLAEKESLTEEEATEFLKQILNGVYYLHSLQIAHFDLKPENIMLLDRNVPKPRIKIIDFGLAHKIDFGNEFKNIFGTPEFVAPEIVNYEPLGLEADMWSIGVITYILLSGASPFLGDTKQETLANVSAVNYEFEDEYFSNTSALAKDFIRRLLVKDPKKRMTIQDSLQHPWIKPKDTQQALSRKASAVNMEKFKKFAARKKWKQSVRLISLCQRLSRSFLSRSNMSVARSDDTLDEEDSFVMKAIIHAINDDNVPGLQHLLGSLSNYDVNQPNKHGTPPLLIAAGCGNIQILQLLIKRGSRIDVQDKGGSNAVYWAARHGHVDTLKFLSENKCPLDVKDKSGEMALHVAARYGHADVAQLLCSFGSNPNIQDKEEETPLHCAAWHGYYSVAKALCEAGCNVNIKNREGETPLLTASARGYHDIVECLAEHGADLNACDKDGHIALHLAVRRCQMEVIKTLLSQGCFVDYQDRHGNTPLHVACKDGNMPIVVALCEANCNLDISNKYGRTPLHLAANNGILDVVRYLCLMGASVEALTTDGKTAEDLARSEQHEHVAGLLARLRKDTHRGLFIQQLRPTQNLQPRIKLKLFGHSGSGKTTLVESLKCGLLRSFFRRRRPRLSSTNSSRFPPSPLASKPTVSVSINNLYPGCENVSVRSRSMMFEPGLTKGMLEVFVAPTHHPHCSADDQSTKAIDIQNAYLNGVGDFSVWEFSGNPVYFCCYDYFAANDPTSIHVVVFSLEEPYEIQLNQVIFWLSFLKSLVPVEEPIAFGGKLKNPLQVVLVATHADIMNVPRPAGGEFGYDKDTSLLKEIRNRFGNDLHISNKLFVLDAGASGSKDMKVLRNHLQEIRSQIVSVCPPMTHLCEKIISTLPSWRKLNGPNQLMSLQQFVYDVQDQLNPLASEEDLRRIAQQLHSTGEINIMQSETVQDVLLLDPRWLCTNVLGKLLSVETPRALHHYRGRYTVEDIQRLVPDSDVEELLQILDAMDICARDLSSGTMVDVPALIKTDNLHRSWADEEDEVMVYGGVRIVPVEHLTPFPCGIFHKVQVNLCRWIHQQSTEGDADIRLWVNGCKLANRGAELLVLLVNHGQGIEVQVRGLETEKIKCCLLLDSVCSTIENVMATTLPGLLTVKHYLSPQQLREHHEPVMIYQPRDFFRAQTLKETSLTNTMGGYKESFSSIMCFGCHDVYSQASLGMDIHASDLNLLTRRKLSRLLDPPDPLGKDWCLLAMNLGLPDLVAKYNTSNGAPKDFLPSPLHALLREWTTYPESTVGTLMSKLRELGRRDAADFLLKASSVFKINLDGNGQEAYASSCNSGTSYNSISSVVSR
How it was run: as §1

[8] = target: T8, ~100 representative kinases (Homo sapiens, UniProt Q13557); settings: Protein CAMK2D; average of three replicates
T8 construct: Recombinant protein kinase domains with a concentration of 2 μM
T8 sequence (Q13557 whole entry, the tested form may be a part): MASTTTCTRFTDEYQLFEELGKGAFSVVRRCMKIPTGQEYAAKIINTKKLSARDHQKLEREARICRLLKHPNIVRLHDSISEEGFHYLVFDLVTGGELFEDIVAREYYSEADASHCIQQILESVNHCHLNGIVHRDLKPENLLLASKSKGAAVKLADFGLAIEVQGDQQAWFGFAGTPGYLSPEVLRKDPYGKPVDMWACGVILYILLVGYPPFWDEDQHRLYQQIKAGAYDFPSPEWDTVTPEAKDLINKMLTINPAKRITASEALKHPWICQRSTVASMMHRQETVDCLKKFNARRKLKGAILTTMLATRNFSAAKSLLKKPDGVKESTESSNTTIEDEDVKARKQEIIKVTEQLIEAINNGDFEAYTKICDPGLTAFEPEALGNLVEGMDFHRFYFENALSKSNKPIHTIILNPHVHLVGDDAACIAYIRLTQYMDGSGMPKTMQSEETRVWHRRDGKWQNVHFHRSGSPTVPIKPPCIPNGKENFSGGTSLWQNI
How it was run: as §1

[9] = target: T9, ~100 representative kinases (Homo sapiens, UniProt P17948); settings: protein FLT1; average of three replicates
T9 construct: Recombinant protein kinase domains with a concentration of 2 μM
T9 sequence (P17948 27-1338): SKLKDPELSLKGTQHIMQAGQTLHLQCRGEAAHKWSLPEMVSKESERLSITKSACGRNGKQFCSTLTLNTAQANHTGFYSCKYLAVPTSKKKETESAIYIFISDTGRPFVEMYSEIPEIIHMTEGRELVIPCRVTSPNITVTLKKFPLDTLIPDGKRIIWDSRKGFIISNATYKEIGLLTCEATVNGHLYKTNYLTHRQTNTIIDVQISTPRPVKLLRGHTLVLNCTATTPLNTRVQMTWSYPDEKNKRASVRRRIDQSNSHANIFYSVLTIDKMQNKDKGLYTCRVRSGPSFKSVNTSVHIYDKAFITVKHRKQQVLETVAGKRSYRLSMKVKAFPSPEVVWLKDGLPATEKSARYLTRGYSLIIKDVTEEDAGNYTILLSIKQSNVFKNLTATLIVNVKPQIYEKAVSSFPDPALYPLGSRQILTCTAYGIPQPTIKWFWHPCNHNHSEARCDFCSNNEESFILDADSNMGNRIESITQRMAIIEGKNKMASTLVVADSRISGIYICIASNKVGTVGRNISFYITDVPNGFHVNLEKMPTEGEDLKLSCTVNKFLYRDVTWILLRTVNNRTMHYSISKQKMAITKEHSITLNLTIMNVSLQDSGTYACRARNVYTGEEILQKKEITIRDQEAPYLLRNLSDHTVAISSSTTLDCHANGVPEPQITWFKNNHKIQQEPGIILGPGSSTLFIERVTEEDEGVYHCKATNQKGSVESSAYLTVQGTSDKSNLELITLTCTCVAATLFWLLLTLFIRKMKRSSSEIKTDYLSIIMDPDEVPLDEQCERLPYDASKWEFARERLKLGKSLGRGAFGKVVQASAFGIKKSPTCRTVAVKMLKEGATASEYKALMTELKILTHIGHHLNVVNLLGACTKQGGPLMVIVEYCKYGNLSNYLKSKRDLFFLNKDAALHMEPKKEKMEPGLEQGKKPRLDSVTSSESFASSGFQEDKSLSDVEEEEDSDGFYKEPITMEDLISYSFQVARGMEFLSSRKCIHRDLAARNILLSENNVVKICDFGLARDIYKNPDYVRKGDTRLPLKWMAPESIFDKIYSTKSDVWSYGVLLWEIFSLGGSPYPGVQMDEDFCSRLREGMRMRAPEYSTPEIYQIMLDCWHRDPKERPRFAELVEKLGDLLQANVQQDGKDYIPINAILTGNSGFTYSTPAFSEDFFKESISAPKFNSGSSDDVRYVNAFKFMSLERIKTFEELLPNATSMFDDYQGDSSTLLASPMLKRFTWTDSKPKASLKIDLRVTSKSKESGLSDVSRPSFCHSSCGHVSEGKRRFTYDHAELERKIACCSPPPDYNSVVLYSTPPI
How it was run: as §1

[10] = target: T10, ~100 representative kinases (Homo sapiens, UniProt P45985); settings: protein MAP2K4; average of three replicates
T10 construct: Recombinant protein kinase domains with a concentration of 2 μM
T10 sequence (P45985 1-399): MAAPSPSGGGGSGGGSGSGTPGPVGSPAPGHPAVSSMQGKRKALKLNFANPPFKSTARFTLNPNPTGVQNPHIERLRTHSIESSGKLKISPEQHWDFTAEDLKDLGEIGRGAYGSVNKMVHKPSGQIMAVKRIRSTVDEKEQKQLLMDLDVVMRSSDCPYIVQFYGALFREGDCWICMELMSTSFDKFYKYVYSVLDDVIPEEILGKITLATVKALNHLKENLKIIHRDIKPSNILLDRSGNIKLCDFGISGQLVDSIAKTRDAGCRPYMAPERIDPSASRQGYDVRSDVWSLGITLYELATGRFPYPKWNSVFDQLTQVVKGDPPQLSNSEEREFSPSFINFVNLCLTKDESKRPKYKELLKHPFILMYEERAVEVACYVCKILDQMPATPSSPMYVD
How it was run: as §1

[11] = tested on: ~100 representative kinases; settings: for dTm: Protein BRD, average of three replicates; for # >5K: number of proteins of the DSF panel with dTm >5K
How it was run: as §1

[12] = number of kinases with thermal shift >5 K divided by total number of kinases screened
[13] = selectivity score: # >5K divided by # of proteins tested in the DSF panel

dTm [1] | dTm [2] | dTm [3] | dTm [4] | dTm [5] | dTm [6] | dTm [7] | dTm [8] | dTm [9] | dTm [10] | dTm [11] | S(5K) [11, 12] | # >5K [11] | S(5K) [11, 13] | Structure (SMILES) | number of kinases stabilized (>5 K) ([11]; Rebastinib 96 kinases screened, RN341 103 kinases screened)
1.24 K | 0.76 K | 2.06 K | 1.02 K | 2.51 K | 5.47 K | -0.75 K | 0.37 K | 0.00 K | 6.81 K | -2.47 K | 0.23 | 23 | 0.230 | CCc1ccc(NC(=O)C2(C(=O)Nc3cccc(-c4c[nH]c5ncnc(N6CCOCC6)c45)c3)CC2)cc1 [Compound 15] | –
0.33 K | 2.17 K | 2.48 K | 3.53 K | 2.94 K | 11.63 K | 2.62 K | -0.40 K | 12.63 K | 5.30 K | -2.22 K | 0.36 | 36 | 0.356 | Cc1ccc(-n2nc(C(C)(C)C)cc2NC(=O)Nc2cccc(-c3c[nH]c4ncnc(N5CCOCC5)c34)c2)cc1 [Compound 29] | –
1.09 K | 2.57 K | 2.36 K | 3.60 K | 1.60 K | 8.69 K | -0.77 K | 0.36 K | 3.85 K | 5.80 K | 0.26 K | 0.32 | 32 | 0.320 | O=C(Nc1cccc(-c2c[nH]c3ncnc(N4CCOCC4)c23)c1)C1(C(=O)Nc2ccc(F)c(F)c2)CC1 [Compound 17] | –
-0.0363 K | 0.25 K | 3.07 K | 3.07 K | 2.09 K | 11.40 K | -1.16 K | -0.00539 K | 4.43 K | 6.42 K | -1.43 K | 0.28 | 28 | 0.280 | COc1cc(NC(=O)C2(C(=O)Nc3cccc(-c4c[nH]c5ncnc(N6CCOCC6)c45)c3)CC2)ccc1F [Compound 21] | –
2.19 K | -0.17 K | 3.80 K | 1.54 K | 1.39 K | 15.50 K | 0.30 K | 0.30 K | 4.48 K | 7.64 K | 0.03 K | 0.20 | 21 | 0.200 | Cc1ccc(C(=O)Nc2ccc(CN3CCN(C)CC3)c(C(F)(F)F)c2)cc1C#Cc1c[nH]c2ncnc(N3CCOCC3)c12 [Compound 1] | –
-0.17 K | 0.58 K | 3.34 K | 2.04 K | 1.53 K | 4.56 K | -0.48 K | 1.32 K | 1.86 K | 5.47 K | 1.03 K | 0.10 | 10 | 0.096 | O=C(Nc1cccc(-c2c[nH]c3ncnc(N4CCOCC4)c23)c1)C1(C(=O)Nc2cc(Br)c(F)cc2F)CC1 [Compound 25] | –
-0.05 K | 0.85 K | 2.66 K | 1.64 K | 0.92 K | -0.47 K | -3.19 K | 0.42 K | 1.63 K | 5.62 K | 1.43 K | 0.09 | 9 | 0.087 | O=C(Nc1cc(F)cc(Br)c1)C1(C(=O)Nc2cccc(-c3c[nH]c4ncnc(N5CCOCC5)c34)c2)CC1 [Compound 27] | –
0.41 K | 0.20 K | 2.38 K | 0.92 K | 1.59 K | 9.86 K | -0.50 K | -0.31 K | 4.33 K | 6.40 K | -1.99 K | 0.33 | 33 | 0.330 | O=C(Nc1cccc(-c2c[nH]c3ncnc(N4CCOCC4)c23)c1)c1cccn(-c2ccc(F)cc2)c1=O [Compound 4] | –
-1.29 K | -0.10 K | 1.77 K | 4.89 K | 1.51 K | 9.79 K | -2.58 K | 0.84 K | 2.44 K | 5.69 K | 1.52 K | 0.22 | 23 | 0.221 | CC(C)(C)c1cccc(NC(=O)C2(C(=O)Nc3cccc(-c4c[nH]c5ncnc(N6CCOCC6)c45)c3)CC2)c1 [Compound 22] | –

Structure (SMILES) | dTm [1] | dTm [2] | dTm [3] | dTm [4] | dTm [5] | dTm [6] | dTm [7] | dTm [8] | dTm [9] | dTm [10] | dTm [11] | S(5K) [11, 12] | # >5K [11] | S(5K) [11, 13] | number of kinases stabilized (>5 K) ([11]; Rebastinib 96 kinases screened, RN341 103 kinases screened)
C[C@@H]1CN(c2cc(-c3n[nH]c4ccc(OC5(C)CC5)cc34)ncn2)C[C@H](C)O1 [MLi2] | 0.23 K | 4.00 K | 0.18 K | 0.81 K | 1.22 K | 0.11 K | 0.22 K | 1.10 K | 0.51 K | 0.87 K | 0.12 K | – | 2 | 0.019 | –
CCSc1nc(NC)c2c(-c3cccc(NC(=O)Nc4cc(C(C)(C)C)nn4-c4ccc(C)cc4)c3)c[nH]c2n1 [Compound 32] | 2.14 K | -0.14 K | 0.13 K | 1.50 K | 0.28 K | 0.80 K | -0.22 K | 0.32 K | 1.15 K | 0.66 K | -0.35 K | 0.10 | 10 | 0.097 | 10
